# Data from US5744494A, “Synergistic compositions containing benzimidazole anthelmintics and methylenedioxyphenyl compounds” (priority 1993, dated 1998).
# Legend:
# [1] = pretreatment with 2-diethylaminoethyl-2,2-diphenylvalerate hydrochloride and piperonyl butoxide; Food Chem. Toxicol. 1992, 30(12), 1021-30; cited from earlier work
# in vivo = conditions: for AUC: goat, po, 7.5 mg/kg
# Method: In order to minimise interindividual variations our experimental protocol was designed as a crossover (each animal was used as its own control). A five week wash-out period was allowed between crossovers. Six goats were used in this experiment.
# First period: Fenbendazole (Panacur 2.5%) was administered orally at a dose rate of 7.5 mg/kg. Blood samples were taken prior to drug administration and 0.25, 0.5, 1, 2, 4, 8, 12, 24, 32, 48, 72 and 96 hours thereafter.
# Second period: One hour before administration of fenbendazole (7.5 mg/kg) the animals received a dose of piperonyl butoxide (0.5 g/kg) given intramuscularly. Blood samples were taken as in the first period.
# Plasma samples were analysed for fenbendazole by High Performance Liquid Chromatography.
# [2] = test system: benzimidazole resistant Ostertagia circumcincta; test: Numbers of O. circumcincta in sheep at necropsy (dilution method); format: in vivo
# Method: (§1) A study was carried out to determine the efficacy of the piperonyl butoxide: fenbendazole combination and to compare it with piperonyl-butoxide and fenbendazole alone against benzimidazole resistant abomasal parasites.
# (§2) Twenty-four parasite naive Suffolk cross lambs were allocated into four groups of six. Each lamb received an oral dose of 6,000 benzimidazole resistant Ostertagia circumcincta and 2,400 benzimidazole resistant Haemonchus contortus.
# (§3) Twenty-eight days after infection animals were treated as follows:
# (§4) Group 2 Piperonyl butoxide (63 mg/kg) by stomach tube.
# (§5) Group 3 Fenbendazole (5 mg/kg) by stomach tube.
# (§6) Group 4 Piperonyl butoxide (63 mg/kg) and fenbendazole
# (§7) (5 mg/kg) by stomach tube.
# (§8) All lambs were faecal sampled and killed seven days after treatment (day 35). Nematode egg numbers were determined in faeces by the McMaster egg counting technique (Gordon and Whitlock (1939) J. Council for Scientific and Industrial Res., 12,50) and numbers of O. circumcincta were determined by the dilution method of Ritchie et al. (1966), Amer J. Vet. Res., 27, 659-667. Total abomasal counts of H. contortus were determined.
# [3] = test system: benzimidazole resistant Haemonchus contortus; test: Total abomasal counts of H. contortus in sheep at necropsy; format: in vivo; conditions: for numbers of H.contortus at necropsy, effect in words: 7 days after treatment; for Mean ±SD numbers of H. contortus in sheep killed 7 days after treatment: piperonyl butoxide 63 mg/kg and/or fenbendazole 5 mg/kg by stomach tube, no treatment 345 ± 69
# Method: as §1, §2, §3, §4, §5, §6, §7, §8
# [4] = test system: benzimidazole resistant Ostertagia circumcincta and Haemonchus contortus; test: Faecal egg counts in infected lambs (McMaster egg counting technique); format: in vivo
# Method: as §1, §2, §3, §4, §5, §6, §7, §8
# [5] = test system: hepatocytes cultured from rats
# From the text: An experiment using hepatocytes cultured from rats has been initiated to determine the metabolic interactions of piperonyl butoxide and fenbendazole (50 micromoles).
smiles,measurement,setting,value
c1ccc2[nH]c(-c3cscn3)nc2c1 [thiabendazole],acute toxic effects on the kidneys of mice,[1],enhanced
"COC(=O)Nc1nc2ccc(Sc3ccccc3)cc2[nH]1 [Fenbendazole, fenbendazole]","area under the plasma concentration-time curve (AUC), change in words",in vivo,significant increase
same,"residence time, change in words",in vivo,significantly prolonged
same,AUC,in vivo; Area under plasma-concentration-time curve (Active alone),4170 ng·h/mL
same,AUC,in vivo; Area under plasma-concentration-time curve (Active plus piperonyl butoxide),16600 ng·h/mL
same,"reduction of number of O.circumcincta in the abomasa, in words","[2]; at necropsy, alone",Neither piperonyl butoxide nor fenbendazole alone significantly reduced
same,Mean ±SD numbers of O. circumcincta in sheep killed 7 days after treatment,"[2]; piperonyl butoxide 63 mg/kg and/or fenbendazole 5 mg/kg by stomach tube, no treatment 2985 ± 654",2875 ± 1308
same,"numbers of H.contortus at necropsy, effect in words",[3],significantly reduced
same,Mean ±SD numbers of H. contortus in sheep killed 7 days after treatment,[3],58 ± 29
same,Mean ±SD faecal egg counts in sheep seven days after treatment,"[4]; piperonyl butoxide 63 mg/kg and/or fenbendazole 5 mg/kg by stomach tube, no treatment 491 ± 267",100 ± 84 Eggs per gram of faeces
same,reduction in faecal egg counts,[4]; seven days after treatment,79.7%
"CCCCOCCOCCOCc1cc2c(cc1CCC)OCO2 [Piperonyl butoxide, piperonyl butoxide]",effect on oxidative metabolism of fenbendazole by rat liver cells,[5],inhibiting the oxidative metabolism of fenbendazole
same,"numbers of H.contortus at necropsy, effect in words",[3],no effect
same,Mean ±SD numbers of H. contortus in sheep killed 7 days after treatment,[3],320 ± 133
"COC(=O)Nc1nc2ccc([S+]([O-])c3ccccc3)cc2[nH]1 (stereo not shown) [Fenbendazole sulfoxide, fenbendazole sulfoxide]",AUC,"in vivo; Area under plasma-concentration-time curve (Active alone), active alone, goats, fenbendazole 7.5 mg/kg oral",7720 ng·h/mL
same,concentrations of the sulfoxide and sulfone metabolites,[5],much reduced
